From patent publication US11168153B2, “Cyclodextrin-based transporter of nucleoside triphosphate transporter across the cell membrane, its preparation and use” (USTAV ORGANICKE CHEMIE A BIOCHEMIE AV CR, V.V.I., priority 2016, dated 2021)

Test system: HIV
Test: Testing virostatic activity of adefovir diphosphate 8 in TZM-bl cell culture infected with HIV
Assay type: cell-based, Human immunodeficiency virus
From the text: The subject of testing was the compound of structure formula 8 (adefovir diphosphate) which is a known (Mulato & Cherrington, 1997) active metabolite—the reverse transcriptase inhibitor—in inhibiting the replication of viral DNA of HIV. In determining activity of […], compound 7 (tenofovir), which is a clinically approved drug used for the treatment of HIV, was used as a standard. […] Then the solution of the complex was removed and the infected cells were overlaid with medium with serum and incubated at 37° C. Parallel control experiments were performed (without infection; infection without active substance; 10 μmol·l^−1 tenofovir 7 throughout incubation; compound 8 without a carrier).

Compound: Nc1ncnc2c1ncn2CCOCP(=O)(O)OP(=O)(O)OP(=O)(O)O [Compound 8, adefovir diphosphate]
- Virostatic activity compared with tenofovir 7 standard (10 μmol·l−1 complex of compound 8 and transporter 6c in buffer A for 10 minutes, three days of incubation, standard 10 μmol·l−1 tenofovir 7 throughout incubation, FIG. 7): identical with the control experiments where a solution of compound 7 was present in the medium throughout the incubation
- Activity relative to drug 7, concluded from the shorter time of application (compound 8 applied using the 6c carrier for 10 min vs compound 7 present throughout incubation): more active than the clinically used drug 7
